“Also recorded” adds a separate entry of the source.

One series has as its target T1, Abeta 1-42 Oligomers (Homo sapiens, UniProt P05067).
T1 construct: Human amyloid peptide 1-42 is obtained from California Peptide; purchased California Peptide
Kind of series: Binding assay (Example BB): Abeta oligomer binding to neurons, image processing. The note with it: imaging processing algorithm. How it is done: Each test compound was added to a plate followed by an addition of one or more of Abeta 1-42 Oligomers. The plates were fixed with 3.7% paraformaldehyde in phosphate buffered saline (PBS) for 15 min. The plate was then washed 3× with PBS for 5 min each. The plates were blocked at room temperature for 1 hour in 5% goat serum and 0.5% Triton X-100 (CAS number: 9002-93-1) in PBS. Primary antibodies (anti-MAP 2 polyclonal, Millipore #AB5622 and anti-Beta Amyloid 6E10 monoclonal, Convance #SIG-39300) were diluted 1:1000 in 5% goat serum with PBS. Primary antibodies were incubated either overnight at 4° C. or 1 hour at RT. The plate was then washed 3× with PBS for 5 min each. Secondary antibodies (Alex Flor 488 polyclonal, Invitrogen #A11008 and Alexa Flor 647 monoclonal, Invitrogen #A21235) were diluted 1:1000 in 5% goat serum with PBS. Secondary antibodies were incubated at RT for 1 hr. The plates were washed once with PBS. […]
Human amyloid peptide 1-42 is obtained from California Peptide, with lot-choice contingent upon quality control analysis. […] Toxicity is monitored in each image-based assay via quantification of nuclear morphology visualized with the DNA binding dye DAPI (Invitrogen). […]
Images were captured and analyzed with the Cellomics VTI automated microscope platform, using the Neuronal Profiling algorithm. […]

Series [1] concerns Abeta oligomer-induced acceleration of exocytosis in primary neurons. Put plainly: Exocytosis assay/MTT assay (Example AA). Format: cell-based, rat. The note with it: Primary neuron. How it is done:
Primary neurons from E18 Sprague-Dawley rat embryos are plated at optimized concentrations in 384 well plates in NB media (Invitrogen). Neurons are maintained in cultures for 3 weeks, with twice weekly feeding of NB media with N2 supplement (Invitrogen). A test compound is added to cells, followed by addition of Vehicle or Abeta oligomer preparations (1.5 μM), and incubated for 1 to 24 hr at 37° C. in 5% CO2. MTT reagent (3-(4,5-dimethylthizaol-2yl)-2,5diphenyl tetrazolium bromide) (Roche Molecular Biochemicals) is reconstituted in phosphate buffered saline to 5 mg/mL. 10 μL of MTT labeling reagent is added to each well and incubated at 37° C. for 1 h, then imaged.
Each assay plate is formatted so that compounds are tested with and without Abeta on each plate. […] Statistical performance of the screening plate layout are assessed, screening will be initiated if the current performance is maintained. […]
Optimal cell density is determined based on cellular response to Abeta oligomers using the exocytosis assay as a readout, and immunohistochemical analysis of the relative proportion of glia to neurons in the cultures. Cultures are monitored on a weekly basis with immunohistochemistry and image processing-based quantification to monitor the percentage of the cultures that are neurons vs. glia (Glial cells). […]
(In general: Tetrazolium assays rely on reduction of a dye to a coloured formazan, in cell work by metabolically active cells.)

Series [2] in a line: Pharmacokinetic studies (Example CC), plasma. Format: in vivo. The following applies: rat, iv, rats, injected intravenously at 1 mg/Kg. How it is done: PK studies are performed at CEREP Inc of Redmond Wash., according to their standard protocols: The plasma samples were processed using acetonitrile precipitation and analyzed by HPLC-MS or HPLC-MS/MS. Peak areas were recorded, and the concentrations of the test compound in the unknown plasma samples were determined using the respective calibration curve. The reportable linear range of the assay was determined, along with the lower limit of quantitation (LLQ).
Pharmacokinetic studies were performed according to the following protocols: The plasma samples were processed using acetonitrile precipitation and analyzed by HPLC-MS or HPLC-MS/MS. Peak areas were recorded, and the concentrations of the test compound in the unknown plasma samples were determined using the respective calibration curve. The reportable linear range of the assay was determined, along with the lower limit of quantitation (LLQ).

Series [3] relates to Abeta assemblies isolated from AD patients or normal individuals. Kind of series: Membrane trafficking assay with patient-derived Abeta assemblies (Example FF). The class given is cell-based. The note with it: FIG. 4. How it is done: Abeta assemblies were isolated from patients with Alzheimer's Disease (AD) or from normal patients. The Abeta assemblies were tested for their ability to modulate membrane trafficking. […] (FIG. 4). […] Compound Example 2 has no effect on Abeta assemblies isolated from Age-matched normal individuals. (FIG. 4). […] (FIG. 4).

The test system of series [4] is Abeta oligomer effects on membrane trafficking in mature primary neurons. Put plainly: Primary neuron-based functional screening assay (membrane trafficking/exocytosis, Example DD). The note with it: for activity in blocking the effects of Abeta oligomers on membrane trafficking: compound added to neurons before oligomers. Format: cell-based, rat. An excerpt: Primary rat neurons grown for at least 3 weeks in vitro were chosen as the basis for this screening assay. […] More complex systems such as acute or organotypic brain slices are very useful but not amenable to high throughput screening. […] For this reason, primary neuronal cultures were chosen because of their ability to be used in high throughput screens and fidelity to what occurs in vivo.
(Scale bar=20 microns in FIG. 1A). […] (FIG. 1B).
The MTT assay can be used as a measure of toxicity in cultures. Yellow tetrazolium salts were endocytosed by cells and reduced to insoluble purple formazan in the endosomal pathway. The level of purple formazan was a reflection of the number of actively metabolizing cells in culture, and reduction in the amount of formazan was taken as a measure of cell death or metabolic toxicity in culture.
The exocytosis assay was adapted for use with mature primary neuronal cultures grown for 3 weeks in vitro.
Compounds were added to neurons first, then oligomers were added.
Data were the average of 3 experiments. Scale bar=20 micron in FIG. 2D.

The test system of series [5] is Abeta oligomer-mediated memory deficits. Kind of series: Fear conditioning assay (Example EE). Format: in vivo, mice. How it is done:
Compound Example 2 was tested in an animal model of a memory-dependent behavioral task known as fear conditioning. The study protocol was designed based on published protocols (See e.g. Puzzo D, Privitera L, Leznik E, Fà M, Staniszewski A, Palmeri A, Arancio O. Picomolar amyloid-beta positively modulates synaptic plasticity and memory in hippocampus. J Neurosci. 2008 Dec. 31; 28(53)14537-45.). The formation of contextual memories is dependent upon the integrity of medial temporal lobe structures such as the hippocampus. In this assay mice were trained to remember that a particular salient context (conditioned stimulus; CS) is associated with an aversive event, in this case a mild foot shock (the unconditioned stimulus, US). Animals that show good learning will express an increase in freezing behavior when placed back into the same context. This freezing is absent in a novel context. Increased freezing in the context indicates strong hippocampal-dependent memory formation in animals. Memory tested in Fear Conditioning is sensitive to elevations of soluble Aβ. […] The fear condition model for memory was performed as described herein.

T1 sequence (P05067 672-713): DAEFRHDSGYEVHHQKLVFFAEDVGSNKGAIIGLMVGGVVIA

On to `COc1cc(CCC(C)NCc2ccc(Cl)cc2)ccc1O` (stereo not drawn) [Compound Example 1, 4-(3-(4-chlorobenzylamino)butyl)-2-methoxyphenol], for which the “partial block of binding of the Abeta oligomer ligand to neurons” value at Abeta 1-42 Oligomers came out at 24%. Besides, in series [1] (MTT assay, primary rat neurons, Abeta oligomers 1.5 μM, read-out: EC50 for block of Abeta oligomer-induced acceleration of exocytosis), the EC50 was found to be 10 µM. Also, in series [2], the half-life came out at 46 min.
In the case of `COc1cc(CCC(C)NCc2ccc(C(F)(F)F)cc2)ccc1O` (stereo not drawn) [Compound Example 2, 4-(3-(4-(trifluoromethyl)benzylamino)butyl)-2-methoxyphenol], in series [3] (IMW (10-100 KDa) assemblies from AD patients), the “effect on trafficking effects of AD-brain derived Abeta assemblies” value is listed as “significantly blocked”. In addition, in series [3] (IMW assemblies from normal individuals), the “effect on Abeta assemblies isolated from Age-matched normal individuals” value is reported as “no effect”. Moreover, the EC50 in series [4] (Rattus norvegicus, Primary neuron, 504 h, FIG. 2B, primary neurons 3 weeks in vitro, read-out: EC50 for inhibition of oligomer effects on membrane trafficking) came out at 7 µM. For the same compound, in series [4], the “activity in blocking the effects of Abeta oligomers on membrane trafficking” value (shortened to “activity in blocking the effects”) is “inhibits oligomer effects on membrane trafficking; also recorded: effective”. Further, the “effect on Abeta oligomer-mediated memory deficits” value in series [5] (2 pmol dose, given prior to Abeta (200 nM), contextual fear conditioning, FIG. 3 bar d) was “completely blocked”. The “block of oligomer effects on memory across doses” value in series [5] (administered prior to Abeta oligomer administration) is reported as “blocked oligomer effects on memory in a dose-dependent manner”. For the same compound, the adverse behavioral changes entry in series [5] (any dose) was “No adverse behavioral changes were observed”. Also, the “effect of compound alone on memory” value in series [5] (no Abeta, data not shown) is on record as “No effect”.
On to `C[C@]12N[C@H](Cc3ccccc31)c1ccccc12` [MK-801, reference compound], for which, in series [4], the “activity in blocking the effects” value is “none were active”.
As to `CC12CC3CC(C)(C1)CC(N)(C3)C2` [Memantine, memantine, reference compound], the inhibition at 28 µM in series [1] (Rattus norvegicus, 28 μM memantine, control on each plate, read-out: inhibition of oligomer effects) stood at 50%.
With `C[N+](C)(C)CCCCCC[N+](C)(C)C` [hexamethonium bromide, reference compound], the “activity in blocking the effects” value in series [4] is reported as “none were active”.
Consider `O[C@H]1[C@H](O)[C@@H](O)[C@H](O)[C@@H](O)[C@@H]1O` [scyllo-inositol, reference compound], for which the “activity in blocking the effects” value in series [4] is listed as “none were active”.

Broadly, the half-life is the time in which the quantity being followed falls by half. A high value points to slow decline. In general, inhibition refers to how much of the control response was suppressed.
